Laboratory results: patent publication US20170202932A1, “METHODS FOR INHIBITING NEURON APOPTOSIS AND NECROSIS” (NEWSOUTH INNOVATIONS PTY LIMITED, priority 2012, published 2017)

Target: T1, recombinant mouse TRPC3b channels (Mus musculus, UniProt Q9QZC1, R524G)
T1 construct: Full length mouse TRPC3 transcripts were obtained by PCR; expressed in transfected cells; host or cells: HEK293 cells, stably transfected (pIRES-DsRed2 vector)
T1 sequence (Q9QZC1 75-910 R524G limits assumed): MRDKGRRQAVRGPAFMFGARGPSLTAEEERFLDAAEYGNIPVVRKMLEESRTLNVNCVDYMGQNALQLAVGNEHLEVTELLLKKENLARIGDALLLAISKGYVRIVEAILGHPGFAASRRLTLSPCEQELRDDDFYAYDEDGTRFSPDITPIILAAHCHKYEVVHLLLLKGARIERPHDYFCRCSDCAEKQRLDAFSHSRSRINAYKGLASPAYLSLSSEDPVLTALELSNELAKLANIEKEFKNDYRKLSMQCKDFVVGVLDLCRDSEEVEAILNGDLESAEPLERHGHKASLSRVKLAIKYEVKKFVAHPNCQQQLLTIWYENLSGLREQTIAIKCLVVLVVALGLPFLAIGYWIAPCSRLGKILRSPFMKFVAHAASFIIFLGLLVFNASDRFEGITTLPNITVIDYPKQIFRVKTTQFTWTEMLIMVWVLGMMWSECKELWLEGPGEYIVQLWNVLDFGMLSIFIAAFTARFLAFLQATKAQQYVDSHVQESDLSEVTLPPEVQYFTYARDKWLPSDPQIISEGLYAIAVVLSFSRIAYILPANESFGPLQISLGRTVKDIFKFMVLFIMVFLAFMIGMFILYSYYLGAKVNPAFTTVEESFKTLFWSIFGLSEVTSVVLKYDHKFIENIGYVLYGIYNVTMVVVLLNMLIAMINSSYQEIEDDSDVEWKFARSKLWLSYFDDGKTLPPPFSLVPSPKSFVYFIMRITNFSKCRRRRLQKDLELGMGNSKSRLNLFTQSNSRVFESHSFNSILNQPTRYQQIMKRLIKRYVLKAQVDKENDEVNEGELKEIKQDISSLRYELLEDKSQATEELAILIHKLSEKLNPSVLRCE
Assay: Whole-cell patch clamp of CCh-activated current, HEK293 cells expressing TRPC3b
Type: cell-based
Conditions: TRPC3b+CCh (100 μM)+genistein 200 μM pre-incubation; Vh=−50 mV; n=6; CCh alone −235.0±28.7 pA
Method: For whole cell patch clamp recordings, HEK293 cells stably expressing recombinant TRPC3 ion channels were grown to 85-95% confluence on a coverslip coated with poly-D-lysine and collagen (both from Sigma-Aldrich, U.S.A.). Recording pipettes were made from borosilicate glass (GC120TF-10, Harvard Apparatus, U.K.). The pipette resistance was at 3-6 MΩ (PC-10, Narishige, Japan). The internal solution had the composition: 130 mM CsCl, 2 mM MgCl2, 10 mM EGTA, 0.3 mM ATP, 0.03 mM GTP, pH at 7.3 adjusted with CsOH. Cells on the coverslip were placed in a microchamber on an inverted microscope (Leica DMIL, Germany) and superfused with HEPES-buffered physiological salt solution (HPSS) containing 120 mM NaCl, 5.4 mM KCl, 2 mM CaCl2, 1.13 mM MgCl2, 10 mM glucose, 20 mM HEPES (pH 7.4) at room temperature.
Whole cell patch clamp recordings were made following a gigaseal, using an Axopatch 200 patch clamp amplifier (Molecular Devices, U.S.A.) controlled by software (pClamp 10.2, Molecular Devices, U.S.A.). Cell capacitance was cancelled and series resistance was compensated by ˜90%. […] Carbachol (used to activate TRPC3 channels via the endogenously expressed M3 AChR) was purchased from Sigma-Aldrich (U.S.A.). DHPG (—(S)-2-amino-2-(3,5-dihydroxyphenyl)acetic acid), a group I mGluR agonist (Schoepp et al. 1994), was purchased from Tocris Bioscience (U.K.). […]

O=c1c(-c2ccc(O)cc2)coc2cc(O)cc(O)c12 [genistein, 4′, 5,7-trihydroxyisoflavone]
mean peak CCh-activated whole-cell inward current: −24.8±9.7 pA
